Assays:
Assay type in all cases: cell-based
[1] = target: T1, AR (Homo sapiens, UniProt P10275); assay: Degradation of AR in VCaP cells; details: VCaP cells; for Dmax: VCaP
T1 construct: Degradation of AR; Cellular potency; host or cells: VCaP cells
T1 sequence (P10275 1-920): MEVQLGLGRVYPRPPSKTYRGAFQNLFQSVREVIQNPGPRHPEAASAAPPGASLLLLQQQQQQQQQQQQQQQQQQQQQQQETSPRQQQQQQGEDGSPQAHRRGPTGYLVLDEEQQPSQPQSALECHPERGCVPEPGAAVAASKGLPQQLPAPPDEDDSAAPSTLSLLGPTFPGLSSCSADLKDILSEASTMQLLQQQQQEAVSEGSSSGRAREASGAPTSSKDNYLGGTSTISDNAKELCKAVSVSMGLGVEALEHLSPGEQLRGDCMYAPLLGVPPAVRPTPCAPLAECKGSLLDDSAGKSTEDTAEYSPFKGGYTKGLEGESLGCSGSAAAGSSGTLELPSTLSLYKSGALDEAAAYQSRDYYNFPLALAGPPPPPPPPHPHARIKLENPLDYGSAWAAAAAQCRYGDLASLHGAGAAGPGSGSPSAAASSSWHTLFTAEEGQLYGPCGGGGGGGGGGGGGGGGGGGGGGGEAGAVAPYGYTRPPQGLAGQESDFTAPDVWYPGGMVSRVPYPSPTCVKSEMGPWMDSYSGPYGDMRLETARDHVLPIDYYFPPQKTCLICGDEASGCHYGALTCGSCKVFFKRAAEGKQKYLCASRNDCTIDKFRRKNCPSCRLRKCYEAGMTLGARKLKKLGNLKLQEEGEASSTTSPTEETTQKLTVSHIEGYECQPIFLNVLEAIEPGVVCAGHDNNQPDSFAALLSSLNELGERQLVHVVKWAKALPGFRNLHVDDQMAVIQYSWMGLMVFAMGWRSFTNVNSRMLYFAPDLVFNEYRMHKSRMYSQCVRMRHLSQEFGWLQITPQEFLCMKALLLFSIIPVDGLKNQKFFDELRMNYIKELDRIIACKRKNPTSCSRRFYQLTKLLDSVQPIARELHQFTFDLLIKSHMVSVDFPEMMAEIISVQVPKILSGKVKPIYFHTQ
Experimental: (§1) Biological Assays. LNCaP and VCaP cells used were purchased from American Type Culture Collection (ATCC). LNCaP were grown in RPMI 1640 (Invitrogen) and VCaP cells were grown in DMEM with Glutamax (Invitrogen). All of the cells were supplemented with 10% fetal bovine serum (Invitrogen) at 37° C. in a humidified 5% CO2 incubator.

[2] = system: VCaP cells; assay: Cellular potency (IC50) in VCaP cells; details: Homo sapiens, VCaP
Experimental: as §1

[3] = system: LNCaP cells; assay: Cellular potency (IC50) in LNCaP cells; details: Homo sapiens, LNCaP
Experimental: as §1

SMILES | DC50 [1] | Dmax [1] | IC50 [2] | IC50 [3]
C[C@H]1CC2(CCN(c3ccc(N4CCN(CC5(F)CN(c6ccc7c(c6)C(=O)N(C6CCC(=O)NC6=O)C7=O)C5)CC4)cc3)CC2)CN1c1ccc(C#N)c(Cl)c1 (some centres unmarked) [compound 84] | < 1 nM | > 90% | – | –
COC1(CN2CCN(c3ccc(N4CCC5(CC4)C[C@H](C)N(c4ccc(C#N)c(Cl)c4)C5)cc3)CC2)CN(c2ccc3c(c2)C(=O)N(C2CCC(=O)NC2=O)C3=O)C1 (some centres unmarked) [compound 85] | < 1 nM | > 90% | – | –
C[C@H]1CC2(CCN(c3ccc(N4CCN(CC5(F)CN(c6ccc7c(c6)C(=O)N(C6CCC(=O)NC6=O)C7=O)C5)CC4)nc3)CC2)CN1c1ccc(C#N)c(Cl)c1 (some centres unmarked) [compound 86] | < 1 nM | > 90% | – | –
COC1(CN2CCN(c3ccc(N4CCC5(CC4)C[C@H](C)N(c4ccc(C#N)c(Cl)c4)C5)cn3)CC2)CN(c2ccc3c(c2)C(=O)N(C2CCC(=O)NC2=O)C3=O)C1 (some centres unmarked) [compound 87] | < 1 nM | > 90% | – | –
C[C@H]1CC2(CCN(c3ccc(N4CCN(CC5(F)CN(c6ccc7c(c6)C(=O)N(C6CCC(=O)NC6=O)C7=O)C5)CC4)cn3)CC2)CN1c1ccc(C#N)c(Cl)c1 (some centres unmarked) [compound 88] | < 1 nM | > 90% | – | –
COC1(CN2CCN(c3ccc(N4CCC5(CC4)C[C@H](C)N(c4ccc(C#N)c(Cl)c4)C5)nc3)CC2)CN(c2ccc3c(c2)C(=O)N(C2CCC(=O)NC2=O)C3=O)C1 (some centres unmarked) [compound 89] | < 1 nM | > 90% | – | –
C[C@H]1CC2(CCN(c3ccc(C(=O)C4CCN(CC(=O)N5Cc6cc7c(cc6C5)C(=O)N(C5CCC(=O)NC5=O)C7=O)CC4)cc3)CC2)CN1c1ccc(C#N)c(Cl)c1 (stereo partly drawn) [compound 147, 2-chloro-4-((3S)-8-(4-(1-(2-(6-(2,6-dioxopiperidin-3-yl)-5,7-dioxo-3,5,6,7-tetrahydropyrrolo[3,4-f]isoindol-2(1H)-yl)-2-oxoethyl)piperidine-4-carbonyl)phenyl)-3-methyl-2,8-diazaspiro[4.5]decan-2-yl)benzonitrile] | – | – | < 100 nM | < 10 nM
C[C@H]1CC2(CCN(c3ccc(C(=O)C4CCN(C(=O)CN5Cc6cc7c(cc6C5)C(=O)N(C5CCC(=O)NC5=O)C7=O)CC4)cc3)CC2)CN1c1ccc(C#N)c(Cl)c1 (stereo partly drawn) [compound 148, 2-chloro-4-((3S)-8-(4-(1-(2-(6-(2,6-dioxopiperidin-3-yl)-5,7-dioxo-3,5,6,7-tetrahydropyrrolo[3,4-f]isoindol-2(1H)-yl)acetyl)piperidine-4-carbonyl)phenyl)-3-methyl-2,8-diazaspiro[4.5]decan-2-yl)benzonitrile] | – | – | < 100 nM | < 10 nM
C[C@H]1CC2(CCN(c3ccc(CN4CCN(C5CN(c6cc7c(cc6F)C(=O)N(C6CCC(=O)NC6=O)C7=O)C5)CC4)cn3)CC2)CN1c1ccc(C#N)c(Cl)c1 (stereo partly drawn) [compound 153, 2-chloro-4-((3S)-8-(5-((4-(1-(2-(2,6-dioxopiperidin-3-yl)-6-fluoro-1,3-dioxoisoindolin-5-yl)azetidin-3-yl)piperazin-1-yl)methyl)pyridin-2-yl)-3-methyl-2,8-diazaspiro[4.5]decan-2-yl)benzonitrile] | – | – | < 100 nM | < 10 nM
C[C@H]1CC2(CCN(c3ccc(CN4CCN(C5CN(c6ccc7c(c6)C(=O)N(C6CCC(=O)NC6=O)C7=O)C5)CC4)cn3)CC2)CN1c1ccc(C#N)c(Cl)c1 (some centres unmarked) [compound 167] | – | – | < 10 nM | < 10 nM
C[C@H]1CC2(CCN(c3ccc(CN4CCN(C5CN(c6ccc7c(c6)C(=O)N(C6CCC(=O)NC6=O)C7=O)C5)CC4)nc3)CC2)CN1c1ccc(C#N)c(Cl)c1 (stereo partly drawn) [compound 169, 2-chloro-4-((3S)-8-(6-((4-(1-(2-(2,6-dioxopiperidin-3-yl)-1,3-dioxoisoindolin-5-yl)azetidin-3-yl)piperazin-1-yl)methyl)pyridin-3-yl)-3-methyl-2,8-diazaspiro[4.5]decan-2-yl)benzonitrile] | – | – | < 10 nM | < 10 nM
C[C@H]1CC2(CCN(c3cnc(CN4CCN(C5CN(c6ccc7c(c6)C(=O)N(C6CCC(=O)NC6=O)C7=O)C5)CC4)nc3)CC2)CN1c1ccc(C#N)c(Cl)c1 (stereo partly drawn) [compound 170, 2-chloro-4-((3S)-8-(2-((4-(1-(2-(2,6-dioxopiperidin-3-yl)-1,3-dioxoisoindolin-5-yl)azetidin-3-yl)piperazin-1-yl)methyl)pyrimidin-5-yl)-3-methyl-2,8-diazaspiro[4.5]decan-2-yl)benzonitrile] | – | – | < 100 nM | < 10 nM
C[C@H]1CC2(CCN(c3ccc(CN4CCC(C5CCN(c6ccc7c(c6)C(=O)N(C6CCC(=O)NC6=O)C7=O)CC5)CC4)cn3)CC2)CN1c1ccc(C#N)c(Cl)c1 (stereo partly drawn) [compound 180, 2-chloro-4-((3S)-8-(5-((1′-(2-(2,6-dioxopiperidin-3-yl)-1,3-dioxoisoindolin-5-yl)-[4,4′-bipiperidin]-1-yl)methyl)pyridin-2-yl)-3-methyl-2,8-diazaspiro[4.5]decan-2-yl)benzonitrile] | – | – | < 100 nM | < 10 nM
